Patent US20130260391A1, “Method Of Determining The Protease Cathepsin B In A Biological Sample” (priority 2010, published 2013)

Biological target: T1, cathepsin B (Homo sapiens, UniProt P07858)
T1 construct: Conversion of procathepsin B in the sample into the active form of cathepsin B; from tissue; host or cells: serum sample
Test: enzyme assay of cathepsin B activity in deinhibited serum sample with substrate Z-Arg-Arg-AFC (fluorescence)
Format: biochemical
Details: inhibitor added to the enzyme assay after withdrawing the protease inhibitor; compared with the signal before withdrawing the inhibitor
Protocol: 6) Measuring the activity of cathepsin B in the sample
To 110 μl of the serum samples, which have been treated as described, in 0.5 ml reaction vessels 110 μl of a solution of the substrate (70 μM Z-Arg-Arg-AFC) are added, the pH-value of which is set at pH=6 by phosphate buffer and which contains 5 mM EDTA and 10 mM DTE. After mixing the samples are incubated for 120 min at 37° C. Subsequently the reaction vessels are cooled down with ice, centrifuged for a short time so as to bring the water condensed at the cap of the reaction vessel back to the solution and then the fluorescence emission is recorded, either on a microtiter plate by means of a fluorescence reader or in a cuvette by means of a fluorimeter. The excitation wavelength is at about 400 nm, and a suitable detection wavelength is at about 505 nm.
Thus evidence is established that the value measured in the enzyme assay after withdrawing the inhibitor relates to cathepsin B which is set free.

CC(C)C[C@H](NC(=O)[C@H]1O[C@@H]1C(=O)O)C(=O)NCCCCN=C(N)N [E 64]
measurement signal of the enzyme assay after addition of the inhibitor: the same as the measuring signal, which is obtained, when the enzyme assay is carried out before withdrawing the inhibitor

CCCNC(=O)[C@H]1O[C@@H]1C(=O)N[C@H](C(=O)N1CCC[C@H]1C(=O)O)[C@@H](C)CC [CA-074]
measurement signal of the enzyme assay after addition of the inhibitor: the same as the measuring signal, which is obtained, when the enzyme assay is carried out before withdrawing the inhibitor
